The source of these data is US20220249616A1, “Osteocrin, Lebetin or ANP for Destroying Bacterial Biofilms” (priority 2019, published 2022).

Like-named read-outs stand apart in the source and are kept apart here.

Experiment [1] deals with preformed biofilm of P. aeruginosa PA14. Kind of experiment: microbe, parasite or virus in culture. The settings on record: for dispersion of established biofilm (observation): 10^−8 M; for dispersion of established biofilm (observation) / % Inhibition (2 h) / Biovolume (2 h): 2 h exposure. The procedure: Briefly, from an 18 h pre-culture, a bacterial suspension at OD600=0.08 prepared in sterile physiological saline solution was injected into each channel of the flow chamber. The bacteria were left for 2 h at 37° C. under static conditions (no flow) so that they adhered to the glass slide. Study of biofilm formation was then conducted under a flow of LB medium (2.5 ml/h) for 24 h at 37° C.
[…] Treatment of the preformed biofilm was conducted for 2 h at 37° C. under static conditions.
(§1) Treatment of the preformed biofilm was conducted for 2 h at 37° C. under static conditions.
To test the membrane integrity of the bacteria, a mixture of 5 μM SYTO 9 Green and 0.3 μM propidium iodide (PI) was used (Live/Dead BacLight Bacterial Viability Kit, Invitrogen).
as §1, §1, §1, §1
Treatment of the biofilm was conducted for 2 h at 37° C. under static conditions. […] Next, 300 μl of tobramycin (50 μg/ml) or 300 μl of milliQ sterile water (control conditions) were injected into the two channels of the flow chamber pre-exposed to ANP. The second treatment of the preformed biofilm was again conducted for 2 h at 37° C. under static conditions.

The target of experiment [2] is AmiC sensor of P. aeruginosa (Pseudomonas aeruginosa, UniProt P27017). To be noted: Rosay et al. (2015); cited from earlier work.
AmiC sensor of P. aeruginosa, sequence (P27017 whole entry): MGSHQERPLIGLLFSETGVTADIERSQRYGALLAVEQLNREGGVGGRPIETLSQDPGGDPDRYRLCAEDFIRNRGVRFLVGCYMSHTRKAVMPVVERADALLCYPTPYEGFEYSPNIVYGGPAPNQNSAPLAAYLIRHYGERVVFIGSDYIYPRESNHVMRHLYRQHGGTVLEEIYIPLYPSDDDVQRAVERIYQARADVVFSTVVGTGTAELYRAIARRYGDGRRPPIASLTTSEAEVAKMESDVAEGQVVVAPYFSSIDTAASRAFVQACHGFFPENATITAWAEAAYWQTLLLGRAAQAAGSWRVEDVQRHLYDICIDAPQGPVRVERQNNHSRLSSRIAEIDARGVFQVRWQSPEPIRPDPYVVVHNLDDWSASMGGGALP
A further experiment concerns P. aeruginosa biofilm. The settings on record: Desriac et al. 2017, 2018; Rosay et al. 2015; cited from earlier work.
Where [3] appears, read: Pseudomonas aeruginosa, PA14, 2 h.

As for `O=C(O)c1cn(C2CC2)c2cc(N3CCNCC3)c(F)cc2c1=O` [Ciprofloxacin, ciprofloxacin, reference compound], in experiment [1] (setting [3]), the inhibition (as a rule, the relative decrease from the control value, in per cent) at 0.01 µg/mL was found to be 90% and the inhibition at 0.04 µg/mL was determined as 99.3%.
In experiment [1], `C[C@@H](O)[C@H]1C(=O)N2C(C(=O)O)=C(SCCN=CN)C[C@H]12` [Imipenem, imipenem, reference compound] came in with a Biovolume of 7.0 μm^3/μm^2. Also, at 0.5 µg/mL the inhibition in experiment [1] (setting [3]) was 75%.
For the compound “lebetin 2α (GDNKPPKKGPPNGCFGHKIDRIGSHSGLGCNKVDDNKG) [Lebetin L2 alpha]”, the “dispersion of established biofilm (observation)” value (from here on “dispersion”) in experiment [1] was “strongly and significantly dispersed”. Moreover, the “% Inhibition (2 h)” value in experiment [1] (Lebetin L2 alpha 10^−8 M) is given as 70.2 (***) %. Besides, the “Biovolume (2 h)” value in experiment [1] (Lebetin L2 alpha 10^−8 M, non-treated 29.7) is given as 8.9 μm^3/μm^2. Also, the “binding onto the AmiC sensor of P. aeruginosa” value in experiment [2] is given as “strong affinity”.
Regarding Brain Natriuretic Peptide [BNP], the “formation of P. aeruginosa biofilm” value in the experiment with P. aeruginosa biofilm is recorded as “prevent the formation”.
Consider colistin [reference compound], for which the % Inhibition – broadly, the change of the read-out against control, counted positive when it falls – in experiment [1] (Colistin 1 μg/ml alone, 2 h) is recorded as 88.6%. Besides, the Biovolume in experiment [1] (Colistin 1 μg/ml alone, 2 h, non-treated 18.5) amounted to 2.1 μm^3/μm^2.
On to polymyxin B [reference compound], for which the “% Inhibition” value in experiment [1] (Polymyxin B 4 μg/ml alone, 2 h) worked out at 59.3%. The compound also yielded a Biovolume in experiment [1] (Polymyxin B 4 μg/ml alone, 2 h, non-treated 18.2) of 7.4 μm^3/μm^2.
With osteocrin, the “dispersion” value in experiment [1] was “strongly and significantly dispersed”. The “% Inhibition (2 h)” value in experiment [1] (Osteocrin 10^−8 M) is reported as 59.4 (***) %. For the same compound, the “Biovolume (2 h)” value in experiment [1] (Osteocrin 10^−8 M, non-treated 29.8) came to 12.1 μm^3/μm^2. Besides, the “binding onto the AmiC sensor of P. aeruginosa” value in experiment [2] is reported as “strong affinity”.
In experiment [1] (setting [3]), `NC[C@H]1O[C@H](O[C@H]2[C@H](O)[C@@H](O[C@H]3O[C@H](CO)[C@@H](O)[C@H](N)[C@H]3O)[C@H](N)C[C@@H]2N)[C@H](N)C[C@@H]1O` [Tobramycin, tobramycin, reference compound] displayed an inhibition at 10 µg/mL of 78.5%. In experiment [1] (setting [3]), this compound returned an inhibition at 50 µg/mL of 75.9%. Besides, the Biovolume came out at 2.9 μm^3/μm^2 in experiment [1] (Tobramycin 10 μg/ml alone, 2 h, non-treated 13.5) and 3.26 μm^3/μm^2 in experiment [1] (Tobramycin 50 μg/ml alone, 2 h, non-treated 13.5).
For lebetin 1β [Lebetin L1 beta], in experiment [1], the “dispersion” value was “strongly dispersed”. Further, in experiment [1] (Lebetin L1 beta 10^−8 M), the “% Inhibition (2 h)” value was found to be 67.0%. In addition, the “Biovolume (2 h)” value in experiment [1] (Lebetin L1 beta 10^−8 M, non-treated 21.0) turned out to be 6.9 μm^3/μm^2.
